Assay results as given in US20080009418A1, “Selective Inhibitors” (Alchemia LTD., priority 2004, published 2008).

Legend:
[1] = target: T1, Human melanocortin (MC5) (Homo sapiens, UniProt P33032); assay: Radioligand binding, human melanocortin MC5 membranes, FlashPlate, [125I]-NDP-αMSH; conditions: compound at 10 μM; [125I]-NDP-αMSH, human MC5 membranes
T1 construct: purchased Perkin Elmer Biosignal
Outline: (§1)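 Cloned human receptor membranes were coated onto FlashPlate wells and incubated with radioligand and compound (added from a 0.5 mM DMSO daughter plate) for 1 hour at room temperature in the dark. Scintillation counting gave percent inhibition, with DMSO defining total and reference ligand defining non-specific binding.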

[2] = target: T2, Mouse urotensin (mUR2) (Mus musculus, UniProt Q8VIH9); assay: Radioligand binding, mouse urotensin mUR2 membranes, FlashPlate, [125I]-Urotensin II; conditions: compound at 10 μM; [125I]-Urotensin II, mouse mUR2 membranes
T2 construct: purchased Perkin Elmer Biosignal
T2 sequence (Q8VIH9 1-385): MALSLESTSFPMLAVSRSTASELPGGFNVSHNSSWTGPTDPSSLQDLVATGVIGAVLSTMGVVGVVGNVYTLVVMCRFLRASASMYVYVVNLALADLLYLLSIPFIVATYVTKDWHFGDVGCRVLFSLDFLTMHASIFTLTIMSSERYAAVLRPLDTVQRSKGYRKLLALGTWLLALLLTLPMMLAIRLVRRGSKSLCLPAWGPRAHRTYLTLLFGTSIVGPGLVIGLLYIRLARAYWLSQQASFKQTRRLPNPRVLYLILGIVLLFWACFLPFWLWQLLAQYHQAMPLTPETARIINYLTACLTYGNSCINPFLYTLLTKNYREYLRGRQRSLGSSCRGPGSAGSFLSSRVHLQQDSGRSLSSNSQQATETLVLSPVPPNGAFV
Outline: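 Cloned mouse urotensin (mUR2) receptor membranes from Perkin Elmer Biosignal were immobilized in FlashPlate microplates using a proprietary coating. Each well got 19.5 μl buffer, then 0.5 μl of DMSO, reference ligand, or compound. Adding 5 μl of [125I]-Urotensin II, diluted to 5× final concentration in binding buffer, started binding. Plates were sealed with TopSeal-A and incubated 1 hour at room temperature in the dark. Wells were counted for 30 seconds each on a TopCount after a 60-second delay, and percentage inhibition was calculated.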

[3] = target: T3, Human Melanocortin (MC4) (Homo sapiens, UniProt P32245); assay: Radioligand binding, human melanocortin MC4 membranes, FlashPlate, [125I]-NDP-αMSH; conditions: compound at 10 μM; [125I]-NDP-αMSH, human MC4 membranes
T3 construct: purchased Perkin Elmer Biosignal
T3 sequence (P32245 whole entry): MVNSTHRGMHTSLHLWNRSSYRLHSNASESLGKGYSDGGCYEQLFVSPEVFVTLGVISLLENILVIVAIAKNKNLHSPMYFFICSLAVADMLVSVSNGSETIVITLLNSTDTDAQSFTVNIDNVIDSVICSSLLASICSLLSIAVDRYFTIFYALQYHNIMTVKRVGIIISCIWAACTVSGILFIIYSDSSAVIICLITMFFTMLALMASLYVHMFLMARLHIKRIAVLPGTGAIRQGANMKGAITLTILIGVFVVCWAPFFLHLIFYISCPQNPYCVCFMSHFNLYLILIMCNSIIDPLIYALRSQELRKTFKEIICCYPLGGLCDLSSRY
Outline: as §1

[4] = target: T4, Human μ-opioid (MOP) (Homo sapiens, UniProt P35372); assay: Radioligand binding, human μ-opioid (MOP) membranes, FlashPlate, [3H]-Naloxone; conditions: compound at 10 μM; [3H]-Naloxone, human MOP membranes
T4 construct: purchased Perkin Elmer Biosignal
T4 sequence (P35372 whole entry): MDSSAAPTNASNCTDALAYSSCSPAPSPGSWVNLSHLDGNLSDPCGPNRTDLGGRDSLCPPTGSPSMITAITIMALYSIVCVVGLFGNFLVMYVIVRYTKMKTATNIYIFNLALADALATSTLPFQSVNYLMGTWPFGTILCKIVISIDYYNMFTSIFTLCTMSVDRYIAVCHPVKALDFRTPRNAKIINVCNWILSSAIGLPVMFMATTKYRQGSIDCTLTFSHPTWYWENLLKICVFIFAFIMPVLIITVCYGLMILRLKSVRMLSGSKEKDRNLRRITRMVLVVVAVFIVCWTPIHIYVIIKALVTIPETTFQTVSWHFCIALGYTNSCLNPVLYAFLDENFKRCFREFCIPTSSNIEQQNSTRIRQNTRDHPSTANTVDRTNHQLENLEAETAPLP
Outline: as §1

[5] = target: T5, Human opioid (ORL1) (Homo sapiens, UniProt P41146); assay: Radioligand binding, human opioid ORL1 membranes, FlashPlate, [125I]-Nociceptin; conditions: compound at 10 μM; [125I]-Nociceptin, human ORL1 membranes
T5 construct: purchased Perkin Elmer Biosignal
T5 sequence (P41146 whole entry): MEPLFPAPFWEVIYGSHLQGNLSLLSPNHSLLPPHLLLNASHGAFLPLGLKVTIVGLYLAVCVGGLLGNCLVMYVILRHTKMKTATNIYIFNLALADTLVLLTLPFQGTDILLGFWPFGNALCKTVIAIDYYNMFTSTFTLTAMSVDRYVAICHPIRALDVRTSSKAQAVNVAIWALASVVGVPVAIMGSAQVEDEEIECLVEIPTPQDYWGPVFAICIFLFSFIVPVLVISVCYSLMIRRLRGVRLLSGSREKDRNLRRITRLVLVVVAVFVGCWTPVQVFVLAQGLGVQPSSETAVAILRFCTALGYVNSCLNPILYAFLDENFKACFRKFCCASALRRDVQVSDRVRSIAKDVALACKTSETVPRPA
Outline: as §1

[6] = target: T6, Human δ-opioid (DOP) (Homo sapiens, UniProt P41143); assay: Radioligand binding, human δ-opioid (DOP) membranes, FlashPlate, [3H]-Bremazocine; conditions: compound at 10 μM; [3H]-Bremazocine, human DOP membranes
T6 construct: purchased Perkin Elmer Biosignal
T6 sequence (P41143 whole entry): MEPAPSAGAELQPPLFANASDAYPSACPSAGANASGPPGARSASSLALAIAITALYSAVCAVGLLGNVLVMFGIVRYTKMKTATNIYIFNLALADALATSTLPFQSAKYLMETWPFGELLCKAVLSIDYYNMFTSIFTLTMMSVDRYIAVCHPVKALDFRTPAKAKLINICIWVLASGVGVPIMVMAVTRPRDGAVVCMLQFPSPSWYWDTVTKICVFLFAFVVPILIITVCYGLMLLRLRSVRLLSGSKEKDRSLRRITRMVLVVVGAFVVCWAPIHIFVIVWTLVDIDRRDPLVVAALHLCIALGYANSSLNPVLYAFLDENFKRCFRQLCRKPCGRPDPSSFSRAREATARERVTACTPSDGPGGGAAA
Outline: as §1

[7] = target: T7, Human neuropeptide Y (NPY-Y1) (Homo sapiens, UniProt P25929); assay: Radioligand binding, human neuropeptide Y NPY-Y1 membranes, FlashPlate, [125I]-PYY; conditions: compound at 10 μM; [125I]-PYY, human NPY-Y1 membranes
T7 construct: purchased Perkin Elmer Biosignal
T7 sequence (P25929 1-384): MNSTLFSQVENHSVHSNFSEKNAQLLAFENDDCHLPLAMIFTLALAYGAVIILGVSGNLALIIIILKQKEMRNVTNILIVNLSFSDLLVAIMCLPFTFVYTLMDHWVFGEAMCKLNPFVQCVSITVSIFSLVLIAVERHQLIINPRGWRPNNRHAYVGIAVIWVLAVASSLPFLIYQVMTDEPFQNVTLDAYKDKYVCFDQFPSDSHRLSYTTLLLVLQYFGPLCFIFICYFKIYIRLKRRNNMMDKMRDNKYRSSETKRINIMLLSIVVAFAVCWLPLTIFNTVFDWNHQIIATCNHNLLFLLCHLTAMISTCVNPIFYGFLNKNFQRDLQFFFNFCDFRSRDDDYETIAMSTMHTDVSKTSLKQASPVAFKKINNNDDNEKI
Outline: as §1

[8] = target: T8, Human Melanocortin (MC3) (Homo sapiens, UniProt P41968); assay: Radioligand binding, human melanocortin MC3 membranes, FlashPlate, [125I]-NDP-αMSH; conditions: compound at 10 μM; [125I]-NDP-αMSH, human MC3 membranes
T8 construct: purchased Perkin Elmer Biosignal
T8 sequence (P41968 whole entry): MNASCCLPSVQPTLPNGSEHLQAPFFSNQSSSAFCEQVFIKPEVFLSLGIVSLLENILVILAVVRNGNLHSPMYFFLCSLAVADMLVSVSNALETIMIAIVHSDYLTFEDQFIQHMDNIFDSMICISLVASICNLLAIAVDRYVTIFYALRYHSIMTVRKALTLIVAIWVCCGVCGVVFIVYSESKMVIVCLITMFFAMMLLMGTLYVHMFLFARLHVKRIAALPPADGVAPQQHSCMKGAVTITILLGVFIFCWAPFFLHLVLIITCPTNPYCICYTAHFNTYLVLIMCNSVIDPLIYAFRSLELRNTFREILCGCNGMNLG
Outline: as §1

[9] = target: T9, Human melanin-concentrating hormone (MCH1) (Homo sapiens, UniProt Q99705); assay: Radioligand binding, human melanin-concentrating hormone MCH1 membranes, FlashPlate, [125I]-S36057; conditions: compound at 10 μM; [125I]-S36057, human MCH1 membranes
T9 construct: purchased Perkin Elmer Biosignal
T9 sequence (Q99705 whole entry): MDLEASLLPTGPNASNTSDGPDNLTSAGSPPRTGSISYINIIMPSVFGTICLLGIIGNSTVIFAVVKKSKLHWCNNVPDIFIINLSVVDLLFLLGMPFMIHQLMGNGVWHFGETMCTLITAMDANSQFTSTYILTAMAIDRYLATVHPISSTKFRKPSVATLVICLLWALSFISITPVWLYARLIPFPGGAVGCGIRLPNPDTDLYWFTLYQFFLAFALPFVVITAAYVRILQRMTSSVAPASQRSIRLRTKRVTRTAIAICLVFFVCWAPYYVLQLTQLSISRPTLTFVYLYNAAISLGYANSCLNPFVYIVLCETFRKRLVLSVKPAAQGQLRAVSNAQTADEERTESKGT
Outline: as §1

[10] = target: T10, Human neurokinin (NK1) (Homo sapiens, UniProt P25103); assay: Radioligand binding, human neurokinin NK1 membranes, filtration, [125I]-Substance P; conditions: compound at 10 μM; [125I]-Substance P, human NK1 membranes
T10 construct: purchased Perkin Elmer Biosignal
T10 sequence (P25103 whole entry): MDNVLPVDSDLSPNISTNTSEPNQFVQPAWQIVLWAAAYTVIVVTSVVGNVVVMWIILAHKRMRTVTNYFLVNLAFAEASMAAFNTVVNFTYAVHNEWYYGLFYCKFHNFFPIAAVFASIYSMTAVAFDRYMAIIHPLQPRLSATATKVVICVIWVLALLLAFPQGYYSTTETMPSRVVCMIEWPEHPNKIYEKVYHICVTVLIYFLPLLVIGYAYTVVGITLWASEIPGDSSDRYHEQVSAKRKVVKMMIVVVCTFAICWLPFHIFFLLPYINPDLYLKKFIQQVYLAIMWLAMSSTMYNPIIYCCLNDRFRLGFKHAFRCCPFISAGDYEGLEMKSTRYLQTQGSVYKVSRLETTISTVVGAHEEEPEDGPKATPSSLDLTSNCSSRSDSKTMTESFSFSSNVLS
Outline: (§2)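 Filtration binding on cloned human receptor membranes (1 Unit/well), [125I]-Substance P for NK1 and [3H]-Diprenorphine for KOP, 1 h at room temperature. Filters PEI-presoaked, washed with cold 50 mM Tris-HCl pH 7.4, counted by scintillation; percent inhibition calculated, reference ligand defining non-specific binding.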

[11] = target: T11, Human κ-Opioid (KOP) (Homo sapiens, UniProt P41145); assay: Radioligand binding, human κ-opioid (KOP) membranes, filtration, [3H]-Diprenorphine; conditions: compound at 10 μM; [3H]-Diprenorphine, human KOP membranes
T11 construct: purchased Perkin Elmer Biosignal
T11 sequence (P41145 whole entry): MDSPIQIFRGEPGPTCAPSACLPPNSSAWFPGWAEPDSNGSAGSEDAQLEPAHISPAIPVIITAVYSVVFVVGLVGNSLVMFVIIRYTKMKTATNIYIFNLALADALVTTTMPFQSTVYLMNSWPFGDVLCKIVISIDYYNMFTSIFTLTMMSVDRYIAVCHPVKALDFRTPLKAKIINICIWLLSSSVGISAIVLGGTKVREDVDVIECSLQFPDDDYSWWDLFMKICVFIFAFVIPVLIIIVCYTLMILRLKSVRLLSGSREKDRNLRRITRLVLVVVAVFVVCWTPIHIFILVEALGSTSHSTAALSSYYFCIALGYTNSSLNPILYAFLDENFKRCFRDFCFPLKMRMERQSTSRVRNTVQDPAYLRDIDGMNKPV
Outline: as §2

T1 sequence (P33032 whole entry): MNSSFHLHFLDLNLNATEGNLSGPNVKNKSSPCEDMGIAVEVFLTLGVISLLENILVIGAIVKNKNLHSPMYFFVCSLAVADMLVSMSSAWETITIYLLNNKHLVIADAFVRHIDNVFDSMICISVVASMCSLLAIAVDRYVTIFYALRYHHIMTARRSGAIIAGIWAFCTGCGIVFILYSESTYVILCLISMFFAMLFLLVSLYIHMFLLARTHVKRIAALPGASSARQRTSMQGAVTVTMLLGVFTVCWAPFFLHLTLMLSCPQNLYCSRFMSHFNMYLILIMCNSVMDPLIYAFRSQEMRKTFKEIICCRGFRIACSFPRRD

Structure (SMILES)	A5: inhibition of radioligand binding [1]	A11: inhibition of radioligand binding [2]	A4: inhibition of radioligand binding [3]	A7: inhibition of radioligand binding [4]	A10: inhibition of radioligand binding [5]	A1: inhibition of radioligand binding [6]	A9: inhibition of radioligand binding [7]	A3: inhibition of radioligand binding [8]	A6: inhibition of radioligand binding [9]	A8: inhibition of radioligand binding [10]	A2: inhibition of radioligand binding [11]
N=C(N)NCCC(=O)NC1C(OCc2ccc(-c3ccccc3)cc2)OC(COCc2ccc3ccccc3c2)C(O)C1OCc1ccc(Cl)cc1 (stereo not shown) [compound 408]	+ (“+” indicates greater than 50% inhibition at 10 μM)	− (“−” indicates less than 50% inhibition at 10 μM)	+ (“+” indicates greater than 50% inhibition at 10 μM)	− (“−” indicates less than 50% inhibition at 10 μM)	+ (“+” indicates greater than 50% inhibition at 10 μM)	− (“−” indicates less than 50% inhibition at 10 μM)	− (“−” indicates less than 50% inhibition at 10 μM)	+ (“+” indicates greater than 50% inhibition at 10 μM)	+ (“+” indicates greater than 50% inhibition at 10 μM)	+ (“+” indicates greater than 50% inhibition at 10 μM)	− (“−” indicates less than 50% inhibition at 10 μM)
N=C(N)NCCC(=O)NC1C(OCc2ccc(-c3ccccc3)cc2)OC(COCc2ccccc2)C(O)C1OCc1ccc(Cl)cc1 (stereo not shown) [compound 409]	+ (“+” indicates greater than 50% inhibition at 10 μM)	− (“−” indicates less than 50% inhibition at 10 μM)	+ (“+” indicates greater than 50% inhibition at 10 μM)	− (“−” indicates less than 50% inhibition at 10 μM)	+ (“+” indicates greater than 50% inhibition at 10 μM)	− (“−” indicates less than 50% inhibition at 10 μM)	− (“−” indicates less than 50% inhibition at 10 μM)	+ (“+” indicates greater than 50% inhibition at 10 μM)	+ (“+” indicates greater than 50% inhibition at 10 μM)	+ (“+” indicates greater than 50% inhibition at 10 μM)	− (“−” indicates less than 50% inhibition at 10 μM)
N=C(N)NCCC(=O)NC1C(OCc2ccc(-c3ccccc3)cc2)OC(COCc2ccc(Cl)cc2)C(O)C1OCc1ccc(Cl)cc1 (stereo not shown) [compound 410]	+ (“+” indicates greater than 50% inhibition at 10 μM)	− (“−” indicates less than 50% inhibition at 10 μM)	+ (“+” indicates greater than 50% inhibition at 10 μM)	− (“−” indicates less than 50% inhibition at 10 μM)	+ (“+” indicates greater than 50% inhibition at 10 μM)	− (“−” indicates less than 50% inhibition at 10 μM)	− (“−” indicates less than 50% inhibition at 10 μM)	+ (“+” indicates greater than 50% inhibition at 10 μM)	+ (“+” indicates greater than 50% inhibition at 10 μM)	+ (“+” indicates greater than 50% inhibition at 10 μM)	− (“−” indicates less than 50% inhibition at 10 μM)
N=C(N)NCCC(=O)NC1C(OCc2ccc(-c3ccccc3)cc2)OC(COCc2ccc3ccccc3c2)C(O)C1OCc1ccc2ccccc2c1 (stereo not shown) [compound 411]	+ (“+” indicates greater than 50% inhibition at 10 μM)	− (“−” indicates less than 50% inhibition at 10 μM)	+ (“+” indicates greater than 50% inhibition at 10 μM)	− (“−” indicates less than 50% inhibition at 10 μM)	+ (“+” indicates greater than 50% inhibition at 10 μM)	− (“−” indicates less than 50% inhibition at 10 μM)	− (“−” indicates less than 50% inhibition at 10 μM)	+ (“+” indicates greater than 50% inhibition at 10 μM)	+ (“+” indicates greater than 50% inhibition at 10 μM)	+ (“+” indicates greater than 50% inhibition at 10 μM)	− (“−” indicates less than 50% inhibition at 10 μM)
N=C(N)NCCC(=O)NC1C(OCc2ccc(-c3ccccc3)cc2)OC(COCc2ccccc2)C(O)C1OCc1ccc2ccccc2c1 (stereo not shown) [compound 412]	+ (“+” indicates greater than 50% inhibition at 10 μM)	− (“−” indicates less than 50% inhibition at 10 μM)	+ (“+” indicates greater than 50% inhibition at 10 μM)	− (“−” indicates less than 50% inhibition at 10 μM)	+ (“+” indicates greater than 50% inhibition at 10 μM)	− (“−” indicates less than 50% inhibition at 10 μM)	− (“−” indicates less than 50% inhibition at 10 μM)	+ (“+” indicates greater than 50% inhibition at 10 μM)	+ (“+” indicates greater than 50% inhibition at 10 μM)	+ (“+” indicates greater than 50% inhibition at 10 μM)	− (“−” indicates less than 50% inhibition at 10 μM)
